The target of data set [1] is T1, CYP3A4 (Homo sapiens, UniProt P08684).
T1 construct: purchased BD Gentest (Woburn, MA, USA); host or cells: baculovirus expression system
Description: Time dependent inhibition (pre-incubation assay) of recombinant CYP3A4. The format is in vitro ADME. As to the method:
The reaction mixture (180–190 μL), consisting of test sample, recombinant enzyme, control protein (0.05 mg of protein/mL), cofactor mix, G-6-PDH, and 50 mM potassium phosphate buffer (pH 7.4) was pre-incubated for 30 min followed by addition of respective fluorescent substrates (10–20 μL) and further incubation for 15 (CYP1A2), 30 (CYP3A4), or 45 (CYP 2C9 and 2C19) min. The reaction was terminated by addition of 75 μL of ice cold acetonitrile/0.5 M Tris base (80:20) and fluorescence was measured as above. IC50 values (pre-incubation assay) were obtained as above. The shift in the concentration-response curve was calculated as the ratio of IC50 (co-incubation)/IC50 (pre-incubation).

Data set [2] deals with T2, CYP2C9 (Homo sapiens, UniProt P11712).
T2 construct: purchased BD Gentest (Woburn, MA, USA); host or cells: baculovirus expression system
Description: Time dependent inhibition (pre-incubation assay) of recombinant CYP2C9. It is filed as in vitro ADME. The note with it: recombinant CYP2C9, 30 min pre-incubation. As to the method:
(§1) Time dependent inhibition (TDI) of CYPs was measured as described earlier by [Sekiguchi et al. (2009)]. The reaction mixture (180–190 μL), consisting of test sample, recombinant enzyme, control protein (0.05 mg of protein/mL), cofactor mix, G-6-PDH, and 50 mM potassium phosphate buffer (pH 7.4) was pre-incubated for 30 min followed by addition of respective fluorescent substrates (10–20 μL) and further incubation for 15 (CYP1A2), 30 (CYP3A4), or 45 (CYP 2C9 and 2C19) min. The reaction was terminated by addition of 75 μL of ice cold acetonitrile/0.5 M Tris base (80:20) and fluorescence was measured as above. IC50 values (pre-incubation assay) were obtained as above. The shift in the concentration-response curve was calculated as the ratio of IC50 (co-incubation)/IC50 (pre-incubation).

The target of data set [3] is T3, CYP2C19 (Homo sapiens, UniProt P33261).
T3 construct: purchased BD Gentest (Woburn, MA, USA); host or cells: baculovirus expression system
Description: Time dependent inhibition (pre-incubation assay) of recombinant CYP2C19. The conditions noted are these: recombinant CYP2C19, 30 min pre-incubation. The format is in vitro ADME. The method, then: as §1

For data set [4], the target named is T3, CYP2C19. Kind of data set: Reversible inhibition (co-incubation assay) of recombinant CYP2C19. The format is in vitro ADME. The method, then:
The assay for reversible inhibition was conducted in a total volume of 200 μL in 96-well microplates. The assay conditions, enzyme and substrate concentrations were similar as reported earlier ([Crespi et al., 1997]; [Manda et al., 2013]). Test samples or positive controls were serially diluted in a solution (100 μL) of cofactors mix, control protein (0.05 mg of protein/mL), and G-6-PDH to achieve six concentrations (100-0.4 μM or μg/mL). Initial readings were taken to record any inherent fluorescence and the plates were incubated at 37°C for 10 min. Reaction was initiated by the addition of enzyme substrate mixture (100 μL) followed by incubation for 15, 30, or 45 min. The reaction was terminated by the addition of 75 μL of ice cold acetonitrile/0.5 M Tris base (80:20). Fluorescence was measured on Spectramax M5 plate reader (Molecular Devices, Sunnyvale, CA, USA) at specified excitation and emission wavelengths for each substrate. IC50 values (co-incubation assay) were obtained from concentration-response curves generated by plotting concentration versus % inhibition.

Data set [5] has as its target T4, PXR (Homo sapiens, UniProt O75469).
T4 construct: expressed in transfected cells; host or cells: HepG2 cells, transient electroporation with pSG5-PXR and the CYP3A4-PXRE-LUC reporter
T4 sequence (O75469 1-434): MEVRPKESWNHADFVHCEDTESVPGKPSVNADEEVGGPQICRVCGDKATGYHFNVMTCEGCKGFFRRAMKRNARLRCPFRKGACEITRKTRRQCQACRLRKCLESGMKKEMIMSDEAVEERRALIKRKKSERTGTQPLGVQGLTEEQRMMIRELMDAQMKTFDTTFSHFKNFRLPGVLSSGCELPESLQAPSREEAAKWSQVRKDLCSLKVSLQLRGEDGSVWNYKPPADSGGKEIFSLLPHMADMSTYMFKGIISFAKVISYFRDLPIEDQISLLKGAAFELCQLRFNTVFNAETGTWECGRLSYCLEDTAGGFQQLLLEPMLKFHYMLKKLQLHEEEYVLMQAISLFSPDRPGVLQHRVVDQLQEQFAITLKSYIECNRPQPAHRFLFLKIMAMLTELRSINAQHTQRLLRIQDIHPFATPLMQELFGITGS
Kind of data set: PXR activation, luciferase reporter gene assay in HepG2 cells. It is filed as cell-based. The method, then:
The modulation of PXR activity by test samples was determined in HepG2 cells transiently transfected with pSG5-PXR (25 μg) and PCR5 plasmid DNA (25 μg) by electroporation at 180 V, 1 pulse for 70 msec. The cells were plated in 96-well plates at a density of 50,000 cells per well. After 24 h, test samples and drug controls were added at various concentrations. After additional 24 hour incubation, the media was aspirated and 40 μL of luciferase reagent (Promega Corporation, Madison, WI, USA) was added to each well and luminescence was measured on Spectramax M5 plate reader (Molecular Devices, Sunnyvale, CA, USA). The fold induction in luciferase activity in the treated cells was calculated in comparison to vehicle treated cells.

Where [6] appears, read: recombinant CYP2C19, co-incubation.

Where “and” joins values, the source holds several entries; their conditions need not be identical. Identical values can stand only once.

T1 sequence (P08684 whole entry): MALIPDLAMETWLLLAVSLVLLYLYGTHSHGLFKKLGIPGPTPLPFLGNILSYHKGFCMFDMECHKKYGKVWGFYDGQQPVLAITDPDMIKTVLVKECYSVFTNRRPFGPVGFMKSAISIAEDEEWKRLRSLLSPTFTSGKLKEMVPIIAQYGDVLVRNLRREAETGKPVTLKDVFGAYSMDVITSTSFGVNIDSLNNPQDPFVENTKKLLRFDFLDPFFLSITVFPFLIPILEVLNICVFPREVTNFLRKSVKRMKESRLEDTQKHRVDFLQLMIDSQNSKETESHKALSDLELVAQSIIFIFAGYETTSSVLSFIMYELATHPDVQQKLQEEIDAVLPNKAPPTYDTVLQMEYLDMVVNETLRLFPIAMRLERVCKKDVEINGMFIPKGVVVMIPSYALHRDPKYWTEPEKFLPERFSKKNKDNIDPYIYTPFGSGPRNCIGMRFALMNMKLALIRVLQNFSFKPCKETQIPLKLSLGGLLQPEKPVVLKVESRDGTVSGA
T3 sequence (P33261 whole entry): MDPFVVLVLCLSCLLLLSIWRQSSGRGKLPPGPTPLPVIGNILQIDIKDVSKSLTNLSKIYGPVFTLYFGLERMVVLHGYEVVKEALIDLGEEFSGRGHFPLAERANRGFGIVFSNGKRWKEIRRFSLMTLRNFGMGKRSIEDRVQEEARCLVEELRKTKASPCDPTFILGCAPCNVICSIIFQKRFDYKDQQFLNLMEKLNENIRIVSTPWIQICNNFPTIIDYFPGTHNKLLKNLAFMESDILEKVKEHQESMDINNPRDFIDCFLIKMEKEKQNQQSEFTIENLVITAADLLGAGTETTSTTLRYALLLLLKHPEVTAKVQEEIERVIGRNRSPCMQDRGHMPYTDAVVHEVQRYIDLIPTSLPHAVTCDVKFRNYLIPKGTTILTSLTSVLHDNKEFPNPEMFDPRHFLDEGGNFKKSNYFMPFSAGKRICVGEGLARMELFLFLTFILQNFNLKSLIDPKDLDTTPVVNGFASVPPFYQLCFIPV
T2 sequence (P11712 whole entry): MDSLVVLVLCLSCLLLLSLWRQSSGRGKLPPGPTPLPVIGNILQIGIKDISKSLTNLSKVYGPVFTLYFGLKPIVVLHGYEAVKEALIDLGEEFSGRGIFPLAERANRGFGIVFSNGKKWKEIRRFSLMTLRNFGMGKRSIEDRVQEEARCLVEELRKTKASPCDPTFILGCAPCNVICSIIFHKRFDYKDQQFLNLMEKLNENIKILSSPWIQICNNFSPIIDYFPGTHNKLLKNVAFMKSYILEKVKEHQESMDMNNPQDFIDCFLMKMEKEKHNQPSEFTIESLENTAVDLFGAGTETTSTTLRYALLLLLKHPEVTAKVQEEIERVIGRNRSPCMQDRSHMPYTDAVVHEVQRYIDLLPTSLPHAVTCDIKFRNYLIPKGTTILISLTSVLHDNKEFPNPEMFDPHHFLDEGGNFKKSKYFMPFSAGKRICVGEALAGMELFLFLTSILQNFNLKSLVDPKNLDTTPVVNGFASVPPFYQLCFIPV

Regarding `CCCC/C=C\CCCCCCCCCC1=C(c2c(O)cc(O)cc2CCCCCCCCC/C=C\CCCC)C(=O)C=C(OC)C1=O` [Demethylbelamcandaquinone B], the half-inhibitory concentration (IC50) was 26 ± 1.5 µM in data set [1]; 22 ± 1.8 µM in data set [2]; 11 ± 0.7 µM in data set [3]; 8 µM and 7.99 µM in data set [4] (setting [6]).
For the compound `CCCC/C=C\CCCCCCCCCc1cc(O)cc2oc3cc(OC)c(O)c(CCCCCCCCC/C=C\CCCC)c3c12` [Fatimahol], the 50% inhibitory concentration (IC50) in data set [1] was determined as 4.4 ± 1.3 µM; in data set [2], 23 ± 1.5 µM; in data set [3], 16 ± 1.1 µM; in data set [4] (setting [6]), 17 µM. For the same compound, in data set [5] (HepG2, 30 μM (highest tested concentration), vs vehicle), the “Induction of PXR activity” value worked out at 1.8 fold. In addition, the “Induction of PXR activity at lower concentration” value in data set [5] (HepG2, below 30 μM) is “not significant”.
On to `CCCC/C=C\CCCCCCCCCc1cc(O)cc(O)c1` [5-[10(Z)-pentadecenyl]resorcinol], for which the IC50 in data set [1] is 0.3 ± 0.06 µM; in data set [2], 8 ± 1.4 µM; in data set [3] it was 3.2 ± 0.2 µM; in data set [4] (setting [6]), 3.77 µM.
For the compound `CCCC/C=C\CCCCCCCCCc1cc(O)cc(OC)c1` [Belamcandol B], the half-maximal inhibitory concentration (IC50) in data set [1] stood at 10 ± 1.3 µM; in data set [2] it was 23 ± 2.1 µM; in data set [3], 3.2 ± 0.3 µM; in data set [4] (human, recombinant CYP2C19, recombinant CYP2C19, co-incubation), 2.2 µg/mL; in data set [4] (setting [6]), 2.2 ± 0.6 µM.

The record behind these values is article PMC4126480, “Evaluation of drug interaction potential of Labisia pumila (Kacip Fatimah) and its constituents” (Frontiers in Pharmacology, 2014).
